Where “and” joins values, the source holds several entries; their conditions need not be identical. Identical values can stand only once.
Key:
ECHCG = assay: Example V (second) postemergence foliar-applied ternary mixtures, greenhouse, direct seeded rice weeds; type: in vivo, Echinochloa crus-galli (L.) Beauv.
How it was run: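 Compound A (SC, acid equivalent), an ACCase inhibitor and a third herbicide were sprayed alone and as ternary mixtures postemergence at 187 L/ha with 1.25% v/v crop oil concentrate on greenhouse plants at the 1st–4th true leaf stage (29/26 °C day/night, ~14 h photoperiod). Injury was scored visually at ~3 weeks (0–100%) against untreated plants, and Colby's equation gave the expected mixture effects.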

LEFCH = assay: as above; type: in vivo, Leptochloa chinensis (L.) Nees
Procedure: The treated plants and control plants were placed in a greenhouse as described above and watered by sub-irrigation to prevent wash-off of the test compounds. After approximately 3 weeks, the condition of the test plants as compared with that of the untreated plants was determined visually and scored on a scale of 0 to 100 percent where 0 corresponds to no injury or growth inhibition and 100 corresponds to complete kill.
Colby's equation was used to determine the herbicidal effects expected from the mixtures (Colby, S. R. 1967. Calculation of the synergistic and antagonistic response of herbicide combinations. Weeds 15:20-22.).
The following equation was used to calculate the expected activity of mixtures containing three active ingredients, A, B, and C: Expected=A+B+C−((A×B+A×C+B×C)/100)+(A×B×C/10000)

SMILES | Visual Weed Control (%) - 21 DAA ECHCG Obs (ECHCG; 2.19 gae/ha) [%] | Visual Weed Control (%) - 21 DAA ECHCG Obs (ECHCG; 4.38 gae/ha) [%] | Visual Weed Control (%) - 21 DAA ECHCG Obs (ECHCG; 8 gae/ha) | Visual Weed Control (%) - 22 DAA ECHCG Obs (ECHCG; 8 gae/ha) [%] | Visual Weed Control (%) - 22 DAA ECHCG Obs (ECHCG; 16 gae/ha) [%] | Visual Weed Control (%) - 22 DAA LEFCH Obs (LEFCH; 8 gae/ha) [%] | Visual Weed Control (%) - 21 DAA LEFCH Obs (LEFCH; 16 gae/ha) [%] | Visual Weed Control (%) - 21 DAA ECHCG Obs (ECHCG; 17.5 gai/ha) [%] | Visual Weed Control (%) - 22 DAA ECHCG Obs (ECHCG; 17.5 gai/ha) [%] | Visual Weed Control (%) - 21 DAA ECHCG Obs (ECHCG; 35 gai/ha) [%] | Visual Weed Control (%) - 22 DAA ECHCG Obs (ECHCG; 35 gai/ha) [%] | Visual Weed Control (%) - 21 DAA LEFCH Obs (LEFCH; 35 gai/ha) [%] | Visual Weed Control (%) - 22 DAA LEFCH Obs (LEFCH; 35 gai/ha) [%]
COc1c(Cl)ccc(-c2nc(C(=O)OCc3ccccc3)c(Cl)c(N)c2F)c1F [Compound A Benzyl Ester, benzyl ester of 4-amino-3-chloro-5-fluoro-6-(4-chloro-2-fluoro-3-methoxy-phenyl)pyridine-2-carboxylic acid] | 5 | 27 | 38% and 45% | 40 | 58 | 28 | 25 |  |  |  |  |  | 
CCCCOC(=O)[C@@H](C)Oc1ccc(Oc2ccc(C#N)cc2F)cc1 [Cyhalofop-butyl, butyl(2R)-2-[4-(4-cyano-2-fluorophenoxy)phenoxy]propanoate, reference compound] |  |  |  |  |  |  |  | 33 | 0 | 20 | 12 | 68 | 70

— patent US9232796B2, “Herbicidal compositions comprising 4-amino-3-chloro-5-fluoro-6-(4-chloro-2-fluoro-3-methoxyphenyl) pyridine-2-carboxylic acid or a derivative thereof and acetyl-CoA carboxylase (ACCase) inhibitors” (DOW AGROSCIENCES LLC, priority 2012, dated 2016)
